Measurements published in patent publication US20060019932A1, “Treatment of rheumatoid arthritis by inhibition of pde4” (priority 2002, published 2006).
Where two headings read alike, the source gives them in different places.

Tests used:
[1] = tested on: collagen-induced arthritis in DBA mice; assay: Collagen-induced arthritis in DBA mice, cumulative score; type: in vivo; details: FIG. 1, score against days dosed, comparable to indomethacin
Source text: FIG. 1 is a graphical plot of the cumulative score in collagen-induced arthritis in DBA mice plotted against days dosed for vehicle, Roflumilast, Indomethacin, and Example 1.

[2] = biological target: T1, human recombinant phosphodiesterase IVa (met-248) (Homo sapiens, UniProt P27815); assay: SPA based PDE activity assay; type: biochemical
T1 construct: human recombinant phosphodiesterase IVa (met-248); GST; made in house; host or cells: baculovirus/Sf-9
T1 sequence (P27815 248-886): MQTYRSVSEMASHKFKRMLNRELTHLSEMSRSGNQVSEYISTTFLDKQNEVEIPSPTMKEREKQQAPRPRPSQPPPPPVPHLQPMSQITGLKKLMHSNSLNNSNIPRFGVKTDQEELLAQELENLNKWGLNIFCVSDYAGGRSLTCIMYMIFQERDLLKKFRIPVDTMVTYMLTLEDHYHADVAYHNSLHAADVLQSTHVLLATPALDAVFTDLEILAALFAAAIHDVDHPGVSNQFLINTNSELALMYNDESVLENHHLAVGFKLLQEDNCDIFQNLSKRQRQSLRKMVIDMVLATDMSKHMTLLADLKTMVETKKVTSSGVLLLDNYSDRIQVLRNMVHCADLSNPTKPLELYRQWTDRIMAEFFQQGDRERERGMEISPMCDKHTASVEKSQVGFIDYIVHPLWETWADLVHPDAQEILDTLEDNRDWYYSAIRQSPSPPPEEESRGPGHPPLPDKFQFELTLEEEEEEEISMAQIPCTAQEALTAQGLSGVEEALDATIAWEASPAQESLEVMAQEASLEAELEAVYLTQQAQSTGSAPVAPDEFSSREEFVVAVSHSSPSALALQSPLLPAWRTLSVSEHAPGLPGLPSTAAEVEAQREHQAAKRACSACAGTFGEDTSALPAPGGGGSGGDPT
Procedure: Compounds which inhibit the hydrolysis of cAMP to AMP by the type-IV cAMP-specific phosphodiesterases were screened in a 96-well plate format as follows:
In a 96 well-plate at 30° C. the test compound was added (dissolved in 2 μL DMSO), 188 μL of substrate buffer containing [2,8-^3H] adenosine 3′,5′-cyclic phosphate (cAMP, 100 nM to 50 μM), 10 mM MgCl2, 1 mM EDTA, 50 mM Tris, pH 7.5. The reaction was initiated by the addition of human recombinant PDE4 (the amount was controlled so that ˜10% product was formed in 10 min.). The reaction was stopped after 10 min. by the addition of 1 mg of PDE-SPA beads (Amersham Pharmacia Biotech, Inc., Piscataway, N.J.). The product AMP generated was quantified on a Wallac Microbeta® 96-well plate counter (EG&G Wallac Co., Gaithersburg, Md.). The signal in the absence of enzyme was defined as the background. 100% activity was defined as the signal detected in the presence of enzyme and DMSO with the background subtracted. Percentage of inhibition was calculated accordingly. IC50 value was approximated with a non-linear regression fit using the standard 4-parameter/multiple binding sites equation from a ten point titration.

IFNγ = assay: Inhibition of LPS or Con A stimulated human whole blood: IFNγ; type: cell-based; details: read-out: Inhibition of LPS or Con A stimulate human whole blood, IFNγ
Source text: (§1) Rheumatoid arthritis (RA) is a systemic autoimmune disease resulting in progressive joint destruction and associated pain. Three major contributors to its pathology are joint inflammation, abnormal cellular and humoral responses, and synovial hyperplasia. T-lymphocytes (T-cells) and monocytes are the major cell types recovered from the synovial tissue of RA patients and experimental evidence confirms that pro-inflammatory cytokines produced by these cells are the major contributors to joint pathogenesis. The inventors have analyzed human whole blood for the production of various cytokines including Th1 and Th2 cytokines following stimulation with lipoplysaccharide (LPS) and Concanavalin A (ConA) in the presence or absence of PDE4 inhibitors. […] TNF-α sequestrants alone have shown clinical efficacy in RA. Thus, if sufficient levels of inhibition are achieved, PDE4 inhibitor-mediated TNF-α suppression would have efficacy in RA.
(§2) Inhibition of various Th1 and monocyte derived cytokines which may play a role in human rheumatoid arthritis.

IL-2 = assay: Inhibition of LPS or Con A stimulated human whole blood: IL-2; type: cell-based; details: read-out: Inhibition of LPS or Con A stimulate human whole blood, IL-2
Source text: as §1, §2

IL-12 = assay: Inhibition of LPS or Con A stimulated human whole blood: IL-12; type: cell-based; details: read-out: Inhibition of LPS or Con A stimulate human whole blood, IL-12
Source text: as §1, §2

TNF-α = assay: Inhibition of LPS or Con A stimulated human whole blood: TNF-α; type: cell-based; details: read-out: Inhibition of LPS or Con A stimulate human whole blood, TNF-α
Source text: as §1
Whole blood provides a protein and cell-rich milieu appropriate for the study of biochemical efficacy of anti-inflammatory compounds such as PDE4-selective inhibitors. […] Upon stimulation with LPS, activated monocytes express and secrete TNF-α up to 8 hours and plasma levels remain stable for 24 hours. […]

GM-CSF = assay: Inhibition of LPS or Con A stimulated human whole blood: GM-CSF; type: cell-based; details: read-out: Inhibition of LPS or Con A stimulate human whole blood, GM-CSF
Source text: as §1, §2

| Structure (SMILES) | cumulative score in collagen-induced arthritis [1] | IC50 ([2]; 100 nM cAMP, purified GST fusion protein of human recombinant PDE IVa (met-248), baculovirus/Sf-9, read-out: IC50) | IC50 (IFNγ) | IC50 (IL-2) | IC50 (IL-12) | IC50 (TNF-α) | IC50 [2] | IC50 (GM-CSF) |
| --- | --- | --- | --- | --- | --- | --- | --- | --- |
| CC(C)NC(=O)/C(=C/c1cccc(-c2cc(C(C)(C)C#N)cc3cccnc23)c1)c1ccc(S(C)(=O)=O)cc1 [Example 1] | low cumulative scores | 0.76 nM | – | – | – | – | – | – |
| Cc1c[n+]([O-])ccc1CC(c1ccc(C(O)(C(F)(F)F)C(F)(F)F)cc1)c1ccc(OC(F)F)c(OC(F)F)c1 (stereo not drawn) [Example 2] | – | – | 50 nM | 300 nM | 130 nM | 50 nM | 1.31 nM | 70 nM |
| O=C(Nc1c(Cl)cncc1Cl)c1ccc(OC(F)F)c(OCC2CC2)c1 [Roflumilast, N-(3,5-dichloropyrid-4-yl)-3-cyclopropylmethoxy-4-difluoromethoxybenzamide, reference compound] | low cumulative scores | – | – | – | – | – | – | – |
